The subject of experiment [1] is Neonatal Rat Ventricular Myocytes (NRVMs). The experiment is described as follows: Myocyte proliferation assay (EdU assay) in neonatal rat ventricular myocytes. It counts as cell-based. The following applies: growth relative to blank myocyte growth without compound added; for Avg 1 uM (average myocyte proliferation): compound 1 uM; for Avg 3 uM (average myocyte proliferation): compound 3 uM; for Avg 10 uM (average myocyte proliferation): compound 10 uM. On the procedure:
1. Isolation of and Culture Neonatal Rat Ventricular Myocytes (NRVMs)
Ventricles from neonatal rats were separated from the atria, cut into small pieces (about 2×2 mm^2) and then dissociated in Ca2+-free HBSS containing 0.125 mg ml-1 trypsin (Gibco), 10 μg ml-1 DNase II (Sigma) and 0.1 mg ml-1 collagenase type IV (Sigma). The digestion was carried out under constant stirring at 37° C. for 5 min. The supernatant was collected with FBS (Gibco) after each digestion period. After digestion, the collected supernatant was centrifuged at 1000 g for 10 min at room temperature, and then cell pellets were resuspended in DMEM (Gibco) supplemented with 10% FBS and with 100 uM 5-bromo-2′-deoxyuridine (Sigma). The resuspended cells were passed through a cell strainer ([…], BD Falcon) and seeded onto 100-mm plastic dishes for 2 h at 37° C. in a 5% CO2 to remove fibroblasts, the supernatant was then collected and plated onto 1% gelatin (Sigma)-coated dishes. 24 h after the seeding, the medium was changed to DMEM (Gibco) containing 2% FBS (Gibco), 1% insulin-transferrin-selenium (ITS; Gibco), 1% Penicillin-Streptomycin (Gibco). After 24 hours of low serum culture, remove the medium with DMEM (Gibco) containing 6% FBS (Gibco), 1% insulin-transferrin-selenium (ITS; Gibco), 1% Penicillin-Streptomycin (Gibco), different concentrations of compounds (the compounds were pre-diluted in the medium and the drug concentration was 10 uM, 3 uM, 1 uM, fully mixed). After 36 h add Edu substrate (Invitrogen) according to the manufacturer's guidelines, and then after 12 h cell can be used.
• 2.1. Immobilization: Remove the medium and fix the cells with […] in 200 ul (whichever is covered) for 15 min and wash the cells twice with 500 ul of PBS for 5 min each time. • 2.2. Broken membrane: Add 200 ul of 0.3% Triton-X 100 (diluted in PBS) to each well, incubate for 10-15 min at room temperature (the time should not be too long), and wash the cells twice with 500 ul of PBS for 5 min each time. • 2.3. Blocking: Add 200 ul of 10% normal goat serum (diluted with 0.1% PBST) to each well, incubate for 1 h at room temperature, and wash twice with 500 ul of 0.1% PBST for 5 min each time. • 2.4. Primary antibody: dilute the primary antibody (abcam, ab8295) to blocking solution at a ratio of 1:200, add 100 ul per well, incubate for 1 h at room temperature (may be slightly longer than 2-3 h), wash the cells twice with 500 ul 0.1% PBST for 5 min each time. • 2.5. Secondary antibody: Dilute the fluorescently labeled secondary antibody (abcam, ab150117) into blocking solution at a ratio of 1:200, add 100 ul per well, incubate for 1 h at room temperature (the time should not be too long), wash the cells twice with 0.1% PBST for 5 min each time, pay attention to the whole process. Protected from light. • 2.6. Edu staining (Invitrogen C10338) • 2.6.1 Prepare Click-iT® reaction cocktail according to Table 3. It was important to add the ingredients in the order listed in the table; otherwise, the reaction would not proceed optimally. Use the Click-iT® reaction cocktail within 15 minutes of preparation.
• 2.6.2 Add 0.1 mL of Click-iT® reaction cocktail to each well containing a coverslip. Rock the plate briefly to ensure that the reaction cocktail is distributed evenly over the coverslip. • 2.6.3 Incubate the plate for 30 minutes at room temperature, protected from light. • 2.6.4 Remove the reaction cocktail, then wash the cells twice with 0.1% PBST for 5 min each time. • 2.7. DAPI staining: DAPI stain was diluted to PBS at a ratio of 1:1000, 100 ul per well, incubated for 30 min at room temperature, and the cells were washed twice with PBS for 5 min each. 3. Data Analysis
We used Molecular Devices' Image Xpress Micro Confocal for high-throughput photo and data analysis.

In the next experiment the target is T1, human CLK1 (Homo sapiens, UniProt P49759).
T1 construct: Recombinant human CLK1 (129-end); GST (N); purchased SignalChem C57-11G; host or cells: Sf9 insect cells
T1 sequence (P49759 129-484 limits assumed): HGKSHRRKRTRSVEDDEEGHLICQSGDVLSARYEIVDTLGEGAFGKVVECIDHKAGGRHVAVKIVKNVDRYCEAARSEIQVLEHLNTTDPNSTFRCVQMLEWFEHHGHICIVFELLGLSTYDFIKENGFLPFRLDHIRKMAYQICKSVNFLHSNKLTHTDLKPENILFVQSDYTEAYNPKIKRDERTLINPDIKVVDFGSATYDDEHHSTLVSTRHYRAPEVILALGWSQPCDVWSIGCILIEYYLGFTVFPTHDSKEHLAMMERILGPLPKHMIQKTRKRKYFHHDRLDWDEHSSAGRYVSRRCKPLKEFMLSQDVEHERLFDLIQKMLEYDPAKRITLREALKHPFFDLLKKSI
Nature of the experiment: CLK1 enzyme assay (ADP-Glo). The format is biochemical. Conditions: ADP-Glo, ATP 10 μM; read-out: CLK1 IC50. The procedure:
The ability of compounds to inhibit human CLK1 kinase activities was determined using a commercially available ADP-Glo™ Kinase Assay kit (Promega, Cat #V9102) according to the manufacturer's protocol.
Recombinant human CLK1 (129-end) (expressed in Sf9 insect cells with an N-terminal GST tag) was purchased from SignalChem (Cat #C57-11G). Recombinant full length human MBP (expressed in E. Coli cells with an N-terminal GST tag.) was purchased from SignalChem (Cat #M42-54G). This assay, run in a 384-well plate format, is a generic method for measuring kinase activities using an ADP-Glo Kinase Assay Kit. The basic assay procedure involves two steps: (1) Enzymatic step: inhibitors are incubated with the kinase and then ATP (included in the ADP-Glo Kinase Assay Kit) and the MBP protein are added to start the enzymatic reaction; (2) Detection step: after the kinase reaction, first ADP-Glo™ Reagent is added to terminate the kinase reaction and deplete the remaining ATP. Second, the Kinase Detection Reagent is added to simultaneously convert ADP to ATP and allow the newly synthesized ATP to be measured using a luciferase/luciferin reaction. The light generated is measured using a luminometer.
Briefly, CLK1 (16 nM) in the enzymatic buffer solutions (40 mM Tris, pH 7.5, 20 mM MgCl2, 0.1 mg/ml BSA, 50 μM DTT) were mixed with various concentrations of inhibitors (dissolved in 100% DMSO). These solutions were incubated for 30 minutes at 25° C., and subsequently a mixture of substrate peptide and ATP was added with the final peptide and ATP concentrations at 2 μM and 10 μM, respectively. The final reaction mixture of enzyme-substrate-ATP-compound was incubated for 60 minutes at 25° C.
Afterwards ADP-Glo™ Reagent was added and the mixture was incubated at 25° C. for 60 minutes. Then Kinase Detection Reagent was added and the final mixture was incubated at 25° C. for 60 minutes. The luminescence signal of the final solution was measured on an Envision instrument (PerkinElmer). The percent (%) inhibition at each concentration of a compound is calculated relative to the luminescence signal in the Max and Min control wells contained within each assay plate. […] The concentrations and percent inhibition values for a test compound are plotted and the concentration of the compound required to achieve 50% inhibition (IC50) is determined with a four-parameter logistic dose response equation.
In general terms: In ADP-Glo the light output rises with the ADP produced.

In the case of `O=C1NC(Nc2ccccc2)=N/C1=C\c1ccc2nn[nH]c2c1` [Example 56, (Z)-5-((1H-benzo[d][1,2,3]triazol-6-yl)methylene)-2-(phenylamino)-3,5-dihydro-4H-imidazol-4-one], in experiment [1], the “Avg 1 uM (average myocyte proliferation)” value is “* (<10% growth relative to blank myocyte growth without compound added.)” and the “Avg 3 uM (average myocyte proliferation)” value is listed as “* (<10% growth relative to blank myocyte growth without compound added.)”. Also, the IC50 on human CLK1 was below 100 nM.
`O=C1NC(Nc2ccccc2)=N/C1=C\c1ccc2sccc2c1` [Example 72, (Z)-5-(benzo[b]thiophen-5-ylmethylene)-2-(phenylamino)-3,5-dihydro-4H-imidazol-4-one]: in experiment [1], the “Avg 1 uM (average myocyte proliferation)” value is “* (<10% growth relative to blank myocyte growth without compound added.)” and the “Avg 3 uM (average myocyte proliferation)” value was “* (<10% growth relative to blank myocyte growth without compound added.)”. For the same compound, at human CLK1, the IC50 is above 10000 nM.
As to `CN(CC1CC1)C1=N/C(=C\c2ccc3c(c2)OCCO3)C(=O)N1` [Example 19, (Z)-2-((cyclopropylmethyl)(methyl)amino)-5-((2,3-dihydrobenzo[b][1,4]dioxin-6-yl)methylene)-3,5-di hydro-4H-imidazol-4-one], in experiment [1], the “Avg 1 uM (average myocyte proliferation)” value is given as “* (<10% growth relative to blank myocyte growth without compound added.)”, the “Avg 3 uM (average myocyte proliferation)” value is recorded as “* (<10% growth relative to blank myocyte growth without compound added.)” and the “Avg 10 uM (average myocyte proliferation)” value (from here on “Avg 10 uM”) is reported as “* (<10% growth relative to blank myocyte growth without compound added.)”. Besides, the IC50 at human CLK1 lay within 1000 to 10000 nM.
Turning to `O=C1NC(Nc2ccc3[nH]ccc3c2)=N/C1=C\c1ccc2ncsc2c1` [Example 69, (Z)-2-((1H-indol-5-yl)amino)-5-(benzo[d]thiazol-6-ylmethylene)-3,5-dihydro-4H-imidazol-4-one], in experiment [1], the “Avg 1 uM (average myocyte proliferation)” value was “** (10%-50%)” and the “Avg 3 uM (average myocyte proliferation)” value is “* (<10% growth relative to blank myocyte growth without compound added.)”. For the same compound, the IC50 at human CLK1 was below 100 nM.
On the same counts, the results for `O=C1NC(Nc2ccc3ncsc3c2)=N/C1=C\c1ccc2[nH]ccc2c1` [Example 58, (Z)-5-((1H-indol-5-yl)methylene)-2-(benzo[d]thiazol-6-ylamino)-3,5-dihydro-4H-imidazol-4-one] are “* (<10% growth relative to blank myocyte growth without compound added.)”, “* (<10% growth relative to blank myocyte growth without compound added.)” and above 10000 nM.
Take `O=C1NC(Nc2ccccc2)=N/C1=C\c1ccc(=O)[nH]c1` [Example 9, (Z)-5-((5-oxo-2-(phenylamino)-1,5-dihydro-4H-imidazol-4-ylidene)methyl)pyridin-2(1H)-one]: in experiment [1], the “Avg 1 uM (average myocyte proliferation)” value is on record as “* (<10% growth relative to blank myocyte growth without compound added.)”, the “Avg 3 uM (average myocyte proliferation)” value was “** (10%-50%)” and the “Avg 10 uM” value was “** (10%-50%)”. Also, the IC50 on human CLK1 is 100 to 1000 nM.
As to `O=C1NC(Nc2ccc(Cl)cc2)=N/C1=C\c1ccc2ncsc2c1` [Example 40, (Z)-5-(benzo[d]thiazol-6-ylmethylene)-2-((4-chlorophenyl)amino)-3,5-dihydro-4H-imidazol-4-one], in experiment [1], the “Avg 1 uM (average myocyte proliferation)” value is “*** (>50%)”, the “Avg 3 uM (average myocyte proliferation)” value is recorded as “*** (>50%)” and the “Avg 10 uM” value was “*** (>50%)”. Further, the half-maximal inhibitory concentration (IC50) at human CLK1 was below 100 nM.
Consider `O=C1NC(Nc2ccc3ncsc3c2)=N/C1=C\c1ccc2c(c1)OCO2` [Example 47, (Z)-5-(benzo[d][1,3]dioxol-5-ylmethylene)-2-(benzo[d]thiazol-6-ylamino)-3,5-dihydro-4H-imidazol-4-one], for which, in experiment [1], the “Avg 1 uM (average myocyte proliferation)” value is “*** (>50%)”, the “Avg 3 uM (average myocyte proliferation)” value is “*** (>50%)” and the “Avg 10 uM” value was “*** (>50%)”. In addition, the IC50 at human CLK1 is above 10000 nM.
Regarding `CN(C1=N/C(=C\c2ccc3[nH]cnc3c2)C(=O)N1)c1ccccc1` [Example 30, (Z)-5-((1H-benzo[d]imidazol-5-yl)methylene)-2-(methyl(phenyl)amino)-3,5-dihydro-4H-imidazol-4-one], in experiment [1], the “Avg 1 uM (average myocyte proliferation)” value was “* (<10% growth relative to blank myocyte growth without compound added.)” and the “Avg 3 uM (average myocyte proliferation)” value is reported as “* (<10% growth relative to blank myocyte growth without compound added.)”. At human CLK1, the IC50 is 100 to 1000 nM.
For the compound `O=C1NC(Nc2ccccc2)=N/C1=C\c1ccc2cc[nH]c2c1` [Example 73, (Z)-5-((1H-indol-6-yl)methylene)-2-(phenylamino)-3,5-dihydro-4H-imidazol-4-one], in experiment [1], the “Avg 1 uM (average myocyte proliferation)” value is “* (<10% growth relative to blank myocyte growth without compound added.)” and the “Avg 3 uM (average myocyte proliferation)” value is “* (<10% growth relative to blank myocyte growth without compound added.)”. Besides, at human CLK1, the IC50 was above 10000 nM.
For `O=C1NC(Nc2ccc3nc(Nc4ccccc4)sc3c2)=N/C1=C\c1ccc2ncsc2c1` [Example 104, (Z)-5-(benzo[d]thiazol-6-ylmethylene)-2-((2-(phenylamino)benzo[d]thiazol-6-yl)amino)-3,5-dihydro-4H-imidazol-4-one], in experiment [1], the “Avg 1 uM (average myocyte proliferation)” value is given as “* (<10% growth relative to blank myocyte growth without compound added.)” and the “Avg 3 uM (average myocyte proliferation)” value is on record as “** (10%-50%)”. Also, the IC50 at human CLK1 was below 100 nM.

A word on the IC50: it is the concentration needed to halve the response being measured.

For the origin of these results see patent US12643887B2, “Heterocyclic derivatives with cardiomyocyte proliferation activity for treatment of heart diseases” (Tongji University, priority 2019, dated 2026).
